Laboratory results as given in ChEMBL document CHEMBL3885861, “Open TG-GATES”.

Species: Rattus norvegicus
Assay: Open TG-GATES - Regimen: Single
Assay type: toxicity, organism-based, Sprague-Dawley
Set-up: regimen Single, gender Male, age 6 weeks
Conditions: in vivo, po, 0 mg/kg, route gavage, dose level Control; for APTT / Bas / Eos / Fbg / Hb / Ht / Lym / MCH / MCHC / MCV / Mono / Neu / PT / Plat / RBC / Ret / WBC: tissue Blood; for KIDNEY_L / KIDNEY_R / KIDNEY_TOTAL: tissue Kidney; for LIVER: tissue Liver; for A/G / ALP / ALT / AST / BUN / CRE / Ca / Cl / DBIL / GLC / IP / K / LDH / Na / PL / RALB / TBIL / TC / TG / TP / gamma-GTP: tissue Plasma

Compound: NC(=O)N/N=C/c1ccc([N+](=O)[O-])o1 [NITROFURAZONE]
- TERMINAL_BW (3 h): 181.6 g
- APTT (3 h): 15.7 s
- Bas (3 h): 0%
- Eos (3 h): 0.6%
- Fbg (3 h): 250 mg/dL
- Hb (3 h): 12.7 g/dL
- Ht (3 h): 39.7%
- Lym (3 h): 79%
- MCH (3 h): 21.6 pg
- MCHC (3 h): 32%
- MCV (3 h): 67.7 fL
- Mono (3 h): 2.8%
- Neu (3 h): 17%
- PT (3 h): 14.7 s
- Plat (3 h): 114.3 x10_4/uL
- RBC (3 h): 586.4 x10_4/ul
- Ret (3 h): 10.9%
- WBC (3 h): 77.6 x10_2/uL
- KIDNEY_L (3 h): 0.8 g
- KIDNEY_R (3 h): 0.8 g
- KIDNEY_TOTAL (3 h): 1.6 g
- LIVER (3 h): 8.2 g
- A/G (3 h): 0.9
- ALP (3 h): 1508.2 IU/L
- ALT (3 h): 45.4 IU/L
- AST (3 h): 78 IU/L
- BUN (3 h): 9.8 mg/dL
- CRE (3 h): 0.2 mg/dL
- Ca (3 h): 11.3 mg/dL
- Cl (3 h): 104.8 meq/L
- DBIL (3 h): 0.012 mg/dL
- GLC (3 h): 179.2 mg/dL
- IP (3 h): 9.6 mg/dL
- K (3 h): 4.1 meq/L
- LDH (3 h): 49.8 IU/L
- Na (3 h): 141 meq/L
- PL (3 h): 141.8 mg/dL
- RALB (3 h): 2.4 g/dL
- TBIL (3 h): 0.056 mg/dL
- TC (3 h): 80.4 mg/dL
- TG (3 h): 54.6 mg/dL
- TP (3 h): 5.2 g/dL
- gamma-GTP (3 h): 1.2 IU/L
- TERMINAL_BW (6 h): 180.8 g
- APTT (6 h): 16.4 s
- Bas (6 h): 0.2%
- Eos (6 h): 0.6%
- Fbg (6 h): 266.6 mg/dL
- Hb (6 h): 12.7 g/dL
- Ht (6 h): 39.4%
- Lym (6 h): 73.2%
- MCH (6 h): 22.1 pg
- MCHC (6 h): 32.2%
- MCV (6 h): 68.6 fL
- Mono (6 h): 3%
- Neu (6 h): 21.8%
- PT (6 h): 14.6 s
- Plat (6 h): 118.4 x10_4/uL
- RBC (6 h): 576.2 x10_4/ul
- Ret (6 h): 11%
- WBC (6 h): 90.9 x10_2/uL
- KIDNEY_L (6 h): 0.8 g
- KIDNEY_R (6 h): 0.9 g
- KIDNEY_TOTAL (6 h): 1.7 g
- LIVER (6 h): 7.4 g
- A/G (6 h): 0.9
- ALP (6 h): 1461 IU/L
- ALT (6 h): 44.4 IU/L
- AST (6 h): 77.2 IU/L
- BUN (6 h): 8 mg/dL
- CRE (6 h): 0.2 mg/dL
- Ca (6 h): 11 mg/dL
- Cl (6 h): 105 meq/L
- DBIL (6 h): 0.01 mg/dL
- GLC (6 h): 169.8 mg/dL
- IP (6 h): 10.3 mg/dL
- K (6 h): 4.2 meq/L
- LDH (6 h): 61.4 IU/L
- Na (6 h): 140.6 meq/L
- PL (6 h): 132.2 mg/dL
- RALB (6 h): 2.4 g/dL
- TBIL (6 h): 0.062 mg/dL
- TC (6 h): 78.2 mg/dL
- TG (6 h): 36.2 mg/dL
- TP (6 h): 5.2 g/dL
- gamma-GTP (6 h): 1 IU/L
- TERMINAL_BW (9 h): 179.5 g
- APTT (9 h): 15.7 s
- Bas (9 h): 0%
- Eos (9 h): 0.6%
- Fbg (9 h): 260 mg/dL
- Hb (9 h): 12.7 g/dL
- Ht (9 h): 39.8%
- Lym (9 h): 75%
- MCH (9 h): 21.6 pg
- MCHC (9 h): 32%
- MCV (9 h): 67.5 fL
- Mono (9 h): 2.4%
- Neu (9 h): 21.4%
- PT (9 h): 14.5 s
- Plat (9 h): 109.4 x10_4/uL
- RBC (9 h): 590.6 x10_4/ul
- Ret (9 h): 10.5%
- WBC (9 h): 64.3 x10_2/uL
- KIDNEY_L (9 h): 0.8 g
- KIDNEY_R (9 h): 0.8 g
- KIDNEY_TOTAL (9 h): 1.6 g
- LIVER (9 h): 7.1 g
- A/G (9 h): 0.9
- ALP (9 h): 1214.2 IU/L
- ALT (9 h): 47.8 IU/L
- AST (9 h): 79.4 IU/L
- BUN (9 h): 8.8 mg/dL
- CRE (9 h): 0.2 mg/dL
- Ca (9 h): 11 mg/dL
- Cl (9 h): 105 meq/L
- DBIL (9 h): 0.012 mg/dL
- GLC (9 h): 169 mg/dL
- IP (9 h): 10.6 mg/dL
- K (9 h): 3.9 meq/L
- LDH (9 h): 55.2 IU/L
- Na (9 h): 142 meq/L
- PL (9 h): 139.4 mg/dL
- RALB (9 h): 2.4 g/dL
- TBIL (9 h): 0.062 mg/dL
- TC (9 h): 85.2 mg/dL
- TG (9 h): 25 mg/dL
- TP (9 h): 5.2 g/dL
- gamma-GTP (9 h): 1.4 IU/L
- TERMINAL_BW (24 h): 194.2 g
- APTT (24 h): 17.5 s
- Bas (24 h): 0%
- Eos (24 h): 0.8%
- Fbg (24 h): 246.6 mg/dL
- Hb (24 h): 13 g/dL
- Ht (24 h): 40.1%
- Lym (24 h): 76.8%
- MCH (24 h): 22 pg
- MCHC (24 h): 32.4%
- MCV (24 h): 67.8 fL
- Mono (24 h): 3.2%
- Neu (24 h): 18.6%
- PT (24 h): 14.8 s
- Plat (24 h): 111.2 x10_4/uL
- RBC (24 h): 592.4 x10_4/ul
- Ret (24 h): 9.7%
- WBC (24 h): 96.7 x10_2/uL
- KIDNEY_L (24 h): 0.8 g
- KIDNEY_R (24 h): 0.9 g
- KIDNEY_TOTAL (24 h): 1.7 g
- LIVER (24 h): 9 g
- A/G (24 h): 0.9
- ALP (24 h): 1711.4 IU/L
- ALT (24 h): 48.4 IU/L
- AST (24 h): 74.4 IU/L
- BUN (24 h): 14.8 mg/dL
- CRE (24 h): 0.2 mg/dL
- Ca (24 h): 11.3 mg/dL
- Cl (24 h): 104.8 meq/L
- DBIL (24 h): 0.012 mg/dL
- GLC (24 h): 177.6 mg/dL
- IP (24 h): 8 mg/dL
- K (24 h): 3.7 meq/L
- LDH (24 h): 61.2 IU/L
- Na (24 h): 142 meq/L
- PL (24 h): 149.2 mg/dL
- RALB (24 h): 2.5 g/dL
- TBIL (24 h): 0.044 mg/dL
- TC (24 h): 82.2 mg/dL
- TG (24 h): 72.4 mg/dL
- TP (24 h): 5.4 g/dL
- gamma-GTP (24 h): 1 IU/L
